Measured values published in patent publication US11021511B2, “Cyclic dinucleotides as sting agonists” (Janssen Biotech, Inc., priority 2017, dated 2021).
pEC50, pIC50: −log10 of the molar value.

Columns and labels:
THP1-Blue ISG cells = assay: Human interferon-β induction assay; format: cell-based; settings: total cumulative IFN-β induction over the dose range tested (0.78 to 50 μM) in THP-1 Blue cells
Protocol: THP1-Blue ISG cells are used to measure the secretion of IFN-β into the culture supernatant following STING pathway activation. To run the assay, anti-IFN-β capture antibodies were coated on 96 well MultiArray plates (Mesoscale Discovery). After a one hour incubation, plates were washed and 50 μL supernatant from the STING human cell reporter assay plates or IFN-β standards were mixed with 20 μL Sulfotag-conjugated detection antibody in the coated plates. Plates were incubated, shaking for 2 h, washed, and read buffer was applied. Electrochemiluminescence was measured on the SectorImager.

primary human PBMC = assay: PBMC activation, CD54 upregulation on monocytes by flow cytometry; format: cell-based; settings: 20 μM, 48 h, relative to resting cells
Protocol: Concurrently, PBMC were isolated as described previously. To stimulate the PBMC, 10,000,000 cells were dispensed into 400 μL/well of flat-bottom, tissue culture treated, 24-well plates. Test compounds were added in a volume of 100 μL, then the cultures were incubated for 48 h at 37° C., 5% CO2. Supernatants were harvested. Cells were measured for activation marker upregulation using flow cytometery. Briefly, cells were stained with fluorescently labeled antibodies directed to CD56, CD19, CD3, CD8a, CD14, CD69, CD54, CD161, CD4 and CD80. Samples were analyzed on an Attune N×T flow cytometer (Thermo Fisher, Carlsbad, Calif.)
PBMCs were stimulated with 20 μM of CDN for 48 h. Cells were assessed by flow cytometry for upregulation of CD54 on monocytes. The fold increase in Mean Fluoresence Intensity was calculated relative to the levels on resting cells. The data is an average of two independent donors.

human STING = human STING (Homo sapiens (Human), UniProt Q86WV6, H232R); assay: human STING SPA binding assay
human STING, sequence (Q86WV6 139-379 H232R): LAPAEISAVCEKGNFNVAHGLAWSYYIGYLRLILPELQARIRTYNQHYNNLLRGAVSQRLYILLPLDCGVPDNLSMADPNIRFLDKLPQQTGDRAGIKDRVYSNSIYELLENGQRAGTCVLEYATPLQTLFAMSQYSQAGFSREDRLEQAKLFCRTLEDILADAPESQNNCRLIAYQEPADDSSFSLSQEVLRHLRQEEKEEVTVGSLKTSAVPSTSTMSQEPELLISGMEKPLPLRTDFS
Protocol: The HIS tag is cleaved after purification and prior to biotinylation.
Test compounds (80 nL) were added with an acoustic dispenser (EDC Biosystems) in 100% DMSO for a final assay concentration of 1% DMSO. Plates were centrifuged for 1 min and incubated for 60 min at room temperature. Finally, (2 μL) polystyrene streptavidin SPA beads (PerkinElmer RPNQ0306) were added and plates were sealed and centrifuged for 1 min at room temperature. Plates were dark adapted for 2 h and read on a ViewLux (Perkin Elmer) for 12 min per plate.

[1] = tested on: human STING pathway in THP1-ISG cells; assay: STING human cell reporter assay; format: cell-based; settings: SEAP reporter, 24 h
Protocol: Agonism of the human STING pathway is assessed in THP1-ISG cells (Invivogen, cat #thp-isg) derived from human THP1 monocyte cell line by stable integration of an interferon regulatory factor (IRF)-inducible SEAP reporter construct. THP1-Blue ISG cells express a secreted embryonic alkaline phosphatase (SEAP) reporter gene under the control of an ISG54 minimal promoter in conjunction with five interferon (IFN)-stimulated response elements. As a result, THP1-Blue ISG cells allow the monitoring of IRF activation by determining the activity of SEAP. The levels of IRF-induced SEAP in the cell culture supernatant are readily assessed with alkaline phosphatase detection medium, a SEAP detection reagent. These cells are resistant to Zeocin. […] To run the assay, 60,000 cells were dispensed in 30 μL/well of a white, opaque bottom tissue culture treated 384-well plate.
Test compounds were added in a volume of 10 μL (1% DMSO final concentration). Compounds are initially prepared in 100% DMSO, spotted on an intermediate dilution plate and then diluted in media prior to transfer. The assay was incubated for 24 h at 37° C., 5% CO2 then plates were centrifuged at 1200 rpm (120×g) for 5 min. […]

SMILES | human IFN-β (ranking value) (THP1-Blue ISG cells) | further results
COC1C2COP(=O)(S)OC3C(COP(=O)(S)OC1C(n1cnc4c(=O)[nH]c(N)nc41)O2)OC(n1cnc2c(N)ncnc21)C3F (single isomer, unassigned) [Compound 6a] | 2427 | –
COC1C2COP(=O)(S)OC3C(COP(=O)(S)OC1C(n1cnc4c(=O)[nH]c(N)nc41)O2)OC(n1cnc2c(N)ncnc21)C3F (single isomer, unassigned) [Compound 6b] | 904 | –
COC1C2COP(=O)(S)OC3C(COP(=O)(S)OC1C(n1cnc4c(=O)[nH]c(N)nc41)O2)OC(n1cnc2c(N)ncnc21)C3F (single isomer, unassigned) [Compound 6c] | 4266 | –
COC1C2COP(=O)(S)OC3C(COP(=O)(S)OC1C(n1cnc4c(=O)[nH]c(N)nc41)O2)OC(n1cnc2c(N)ncnc21)C3F (single isomer, unassigned) [Compound 6d] | 3039 | –
Nc1nc2c(ncn2[C@@H]2O[C@@H]3COP(=O)(O)O[C@H]4[C@@H](O)[C@H](n5cnc6c(N)ncnc65)O[C@@H]4COP(=O)(O)O[C@@H]2[C@@H]3O)c(=O)[nH]1 [4-2′3′-cGAMP, (2′,3′)cyclic guanosine monophosphate-adenosine monophosphate] | – | MFI, fold increase of CD54 on monocytes (primary human PBMC): 4.5
CC1(O)C2OP(=O)(O)OCC3OC(n4cnc5c(=O)[nH]c(N)nc54)C(OP(=O)(O)OCC2OC1n1cnc2c(N)ncnc21)C3O (centres unmarked) [Compound 1] | – | pIC50 (human STING): 4.26; pEC50 [1]: 5.74
COC1C2COP(=O)(O)OC3C(COP(=O)(O)OC1C(n1cnc4c(=O)[nH]c(N)nc41)O2)OC(n1cnc2c(N)ncnc21)C3F (centres unmarked) [Compound 5] | 1024 | –
